Here are results for two molecules from article PMC12048343, “Discovery of a small molecule secreted clusterin enhancer that improves memory in Alzheimer’s disease mice” (npj Drug Discovery, 2025).

In brackets after ≈: the same amount, converted by molar mass. Read-outs that look alike come from different tables or passages of the source.

Data set [1] relates to sCLU secreted from human U-87 MG glioblastoma cells. Briefly: Human sCLU AlphaLISA on supernatant of U-87 MG cells (HTS, re-test, dose response). It counts as cell-based. As to conditions: Homo sapiens; U-87 MG cells, 30 h, AlphaLISA of supernatant; read-out: EC50 for sCLU increase. As to the method: Cell culture supernatant (2 μL) was added to a 384-well proxy plate preloaded with AlphaLISA HiBlock buffer (2 µL, 1X, CAT#AL004C, Perkin Elmer). Then an anti-sCLU antibody mixture (2 µL, mAb J84, biotinylated (10 nM, Cat# 3717-6-1000, Mabtech) and mAb CLU aa 22-227 (Cat#AF7084, R&D Systems), Acceptor bead conjugated (50 µg/mL, Cat#6772001, Perkin Elmer)) was added and incubated at room temperature for 1 hour. AlphaScreen Streptavidin Donor beads (2 µL, Cat#6760002S, Perkin Elmer) were added, incubated for an additional 30 min in the dark, and the plate was read in an Envision plate reader.
Human glioblastoma U-87 MG cells were proliferated in EMEM with 10% FBS and 1% P/S (complete medium) in 10 cm dishes until approximately 90% confluent. Following trypsinization, a suspension of 2 × 10^5 cells/mL (25 µL) were added to 384-well plates containing complete medium (25 µL) and library compounds from 9 plates (5 µM). After incubation for 30 h at 37 °C and 5% CO2, 2 μL of cell culture supernatant were analyzed via human sCLU AlphaLISA as described above. Cell culture medium and cells were added to the 384-well plates using the MultiDrop. The BioMek FX was used to pin the drugs and transfer the cell culture supernatant. The MANTIS liquid handler was used to added human sCLU AlphaLISA reagents.
Human glioblastoma U-87 MG cells were proliferated in EMEM with 10% FBS and 1% P/S (complete medium) in 10 cm dishes until approximately 90% confluent. […] After incubation for 30 hours at 37 °C and 5% CO2, 2 μL of cell culture supernatant were analyzed via human sCLU AlphaLISA as described above.

Data set [2] addresses BRD2 (Homo sapiens, UniProt P25440). The data set is described as follows: BRD2 inhibition assay. It counts as biochemical.
Data set [3] can be described thus: Brain tissue binding assay (dialysis). In kind it is in vitro ADME. As to the method:
(§1) Brain tissue was homogenized in PBS (pH 7.4) (1: 3 weight(mg)/volume(µL)) and the protein concentration was determined using the Micro BCA™ Protein Assay Kit (Thermo Fisher Scientific, Cat#23235). Brain homogenate was clarified and diluted to 20 mg/mL in PBS (pH 7.4). Either brain homogenate or plasma was and added to Slide-A-Lyzer™ MINI Dialysis Devices, 10 K MWCO dialysis cups (Thermo Fisher Scientific, Cat#PI88401) in a 48-well plate containing PBS (500 µL; pH 7.4). 1 µL of 1 mM compound was added to the brain homogenate (Final Concentration: 2 µM compound, 0.5% DMSO) and incubated on a rocker for 4.5 hours at 37 °C. 50 µL of brain homogenate or plasma (within the dialysis cup) and PBS (within the 48-well plate) were transferred to new microcentrifuge tubes containing 400 µL of quenching reagent (100% Acetonitrile) containing internal standard. Solutions were clarified by centrifugation (16,000 x g, 5 min), and the supernatants were transferred to new tubes and lyophilized. Samples were reconstituted in 100 µL of 50/50/0.1 (Water/Acetonitrile/Formic Acid) prior to analysis via liquid chromatography-tandem mass spectrometry (LC-MS/MS). The % of the unbound drug (fu,bound) was calculated using the following equation:
(§2) % Bound = [1− (PBS chromatographic peak area/ brain homogenate or plasma chromatographic peak area)] x 100

The target in data set [4] is BRD4 (Homo sapiens, UniProt O60885). The data set is described as follows: BRD4 inhibition assay. In kind it is biochemical.
The nature of data set [5]: Blood-Brain Barrier (BBB) permeability assay (IAM column, Pm). In kind it is in vitro ADME. To be noted: pH 7.4; Pm > 1.0 = CNS+. As for the experimental part:
A liquid chromatography-ultraviolet/visible spectroscopy (LC-UV/Vis) assay was performed on a 1290 Infinity HPLC system (Agilent Technologies) with an HPLC column containing immobilized phosphatidylcholine (IAM.PC.DD, Regis Technologies, Cat#774011, 5 µm 300 Å 100 ×4.6 mm). The HPLC method was a mixture of 6.7 mM phosphate buffer saline (pH 7.4; solvent A) and acetonitrile (solvent B), and a gradient was used for the elution of the compounds (min/%B: 0/20, 20/60, 21/20, 30/20). The retention time of the compound (tr) and void volume time of the column (t0) were recorded. Blood-brain barrier (BBB) permeability (Pm) was calculated using the following equations as described by Yoon et al. (10.1177/1087057105281656):
KIAM = (tr − t0) / t0; Pm = (KIAM / MW^4) x 10^10
Compounds with a Pm > 1.0 were determined to be BBB permeable (CNS + ) at pH 7.

The nature of data set [6]: Plasma binding assay (dialysis). In kind it is in vitro ADME. To be noted: dialysis 4.5 hours, 37 °C. As for the experimental part: as §1, §2
A short description of data set [7]: Kinetic solubility. It counts as physicochemical. To be noted: aqueous buffer, kinetic from dmso stock, PBS pH 7.4, 37 °C, 100 µM nominal. As for the experimental part:
Test compound (10 mM, 100% DMSO) was diluted separately into aqueous buffer (100 µM; PBS pH 7.4) and DMSO at various concentrations (1000, 100, 10, 1, 0.1 µM). The solutions were then incubated at 37 °C for 90 min and centrifuged (16000xg, 5 min). An aliquot of each supernatant was analyzed by UV/Vis (if possible) or LC-MS/MS. A standard curve was made by plotting the known amount of analyte per standard in DMSO vs. absorbance or chromatographic peak area. Kinetic solubility (mM) was calculated using the trendline equation with maximum absorbance or chromatographic peak area observed in the aqueous sample.

The nature of data set [8]: Liver microsome stability assay. In kind it is in vitro ADME. As to conditions: pH 7.4; human liver microsomes 0.5 mg/mL, NADPH, 37 °C, up to 120 min; read-out: Microsomal Stability t1/2. As to the method: An aliquot (1 µL) of test compound (1 mM, 100% DMSO) was added to an aqueous liver microsome solution (1000 µL, PBS pH 7.4, 0.5 mg/mL human liver microsomes (Thermo Fisher Scientific, Cat#HMMPL), 2 mM NADPH, 2 mM MgCl2) and incubated at 37 °C for 120 min. Aliquots (50 µL) of the microsome solution were taken at various time points (0, 5, 10, 15, 30, 60, 90, 120 min) and added to a reaction quenching solution (200 µL 100% Acetonitrile) containing an internal standard. Solutions were clarified by centrifugation (16,000 x g, 5 min), and the supernatants were transferred to new tubes and lyophilized. Samples were reconstituted in 100 µL of 50/50/0.1 (Water/Acetonitrile/Formic Acid) prior to analysis via liquid chromatography-tandem mass spectrometry (LC-MS/MS). Chromatographic peak areas normalized to the internal standard were plotted at each time point and the half-life (t1/2) of compound in liver microsomes was determined by using the trendline equation to calculate the time at which compound abundance was 50% of that at time point 0 (t0).

[9] abbreviates: brain homogenate 20 mg/mL, 2 µM compound, dialysis 4.5 hours, 37 °C.

Chain of BRD2 (P25440 whole entry): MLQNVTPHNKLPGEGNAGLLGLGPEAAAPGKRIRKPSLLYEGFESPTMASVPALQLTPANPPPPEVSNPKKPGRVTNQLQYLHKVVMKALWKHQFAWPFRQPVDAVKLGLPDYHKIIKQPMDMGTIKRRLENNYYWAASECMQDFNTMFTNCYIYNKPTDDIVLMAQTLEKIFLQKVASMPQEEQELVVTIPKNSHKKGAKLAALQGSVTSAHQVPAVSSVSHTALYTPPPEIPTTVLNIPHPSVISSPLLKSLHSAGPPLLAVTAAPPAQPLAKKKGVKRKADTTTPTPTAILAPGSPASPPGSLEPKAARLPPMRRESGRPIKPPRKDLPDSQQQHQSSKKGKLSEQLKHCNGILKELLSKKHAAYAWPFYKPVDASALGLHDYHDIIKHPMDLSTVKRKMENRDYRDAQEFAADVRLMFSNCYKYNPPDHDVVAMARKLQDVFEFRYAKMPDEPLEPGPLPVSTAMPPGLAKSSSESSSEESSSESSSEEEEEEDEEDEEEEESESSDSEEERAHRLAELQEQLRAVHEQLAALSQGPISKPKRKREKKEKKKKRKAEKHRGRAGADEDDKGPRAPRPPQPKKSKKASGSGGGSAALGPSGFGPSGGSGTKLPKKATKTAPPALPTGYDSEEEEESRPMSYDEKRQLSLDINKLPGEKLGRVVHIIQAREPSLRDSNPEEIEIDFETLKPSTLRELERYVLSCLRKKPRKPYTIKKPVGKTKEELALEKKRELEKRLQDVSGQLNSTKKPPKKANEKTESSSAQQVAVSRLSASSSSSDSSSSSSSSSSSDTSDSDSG

Take `Cc1sc2c(c1C)C(c1ccc(Cl)cc1)=N[C@@H](CC(=O)OC1CC1)c1nnc(C)n1-2` [DDL-357]: in data set [1], the concentration for a half-maximal effect (EC50) is 223 nM. Besides, the IC50 in data set [2] was determined as 161 nM; in data set [4], 20 nM. The Brain Tissue Binding in data set [3] was found to be 75.3%; in data set [3] (setting [9]), 75 % bound. Besides, the “PAMPA Pm” value in data set [5] worked out at 1.66. Besides, the “Plasma Binding” value in data set [6] came to 88 % bound. The same molecule gave a solubility (kinetic) at 90 min in data set [7] of 80 µM (≈ 35.3 µg/mL). Further, the half-life at 1 µM in data set [8] was 1.02 h.

In the case of `Cc1sc2c(c1C)C(c1ccc(Cl)cc1)=N[C@@H](CC(=O)OC1COC1)c1nnc(C)n1-2` [DDL-356], in data set [1], the EC50 was 178 nM. For the same molecule, the results for the half-maximal inhibitory concentration (IC50) in data set [2] and in data set [4] were 158 nM and 23 nM, respectively. Besides, the “Brain Tissue Binding” value in data set [3] (setting [9]) was found to be 57 % bound. The “PAMPA Pm” value in data set [5] is 0.96. Besides, the “Plasma Binding” value in data set [6] was 79 % bound. Besides, the kinetic solubility at 90 min in data set [7] is greater than 100 µM. In addition, in data set [8], the half-life at 1 µM stood at 1.25 h.
